Five compounds from US6897222B2, “Pyrido[2,1-a]isoquinoline derivatives” (Hoffmann-La Roche Inc., priority 2001, dated 2005) can be followed below.

SMILES strings stand for the structures.

For the assay, the target named is T1, human DPP-IV (Homo sapiens, UniProt P27487).
T1 construct: made in house; host or cells: Pichia pastoris
As to the kind of experiment: DPP-IV activity assay (fluorogenic or colorimetric), IC50 determination. It counts as biochemical. Conditions: natural human DPP-IV from plasma pool or recombinant human DPP-IV; substrate 50 μM (fluorogenic) or 200 μM (colorimetric); 37° C., pH 7.8. The protocol:
Activity of DPP-IV inhibitors are tested with natural human DPP-IV derived from a human plasma pool or with recombinant human DPP-IV. Human citrate plasma from different donors is pooled, filtered through a 0.2 micron membrane under sterile conditions and aliquots of 1 ml are shock frozen and stored at −120° C. until used. In the colorimetric DPP-IV assay 5 to 10 μl human plasma and in the fluorometric assay 1.0 μl of human plasma in a total assay volume of 100 μl is used as an enzyme source. […] Human DPP-IV is expressed and purified from the culture medium using conventional column chromatography including size exclusion and anion and cation chromatography. […] In the colorimetric DPP-IV assay 20 ng rec.-h DPP-IV and in the fluorometric assay 2 ng rec-h DPP-IV in a total assay volume of 100 μl is used as an enzyme source.
A 20 mM stock solution in 10% DMF/H2O is stored at −20° C. until use.
In the colorimetric assay H-Ala-Pro-pNA. […] A 10 mM stock solution in 10% MeOH/H2O is stored at −20° C. until use.
Initial rate constants are calculated by best fit linear regression.
DPP-IV activity assays are performed in 96 well plates at 37° C. in a total assay volume of 100 μl. The assay buffer consists of 50 mM Tris/HCl pH 7.8 containing 0.1 mg/ml BSA and 100 mM NaCl. Test compounds are solved in 100% DMSO, diluted to the desired concentration in 10% DMSO/H2O. The final DMSO concentration in the assay is 1% (v/v).
Compounds are with (10 minutes at 37° C.) and without preincubation with the enzyme. Enzyme reactions are started with substrate application followed by immediate mixing.
Kinetic parameters of the enzyme reaction are calculated at at least 5 different substrate concentrations and at least 5 different test compound concentrations.

T1 sequence (P27487 31-766): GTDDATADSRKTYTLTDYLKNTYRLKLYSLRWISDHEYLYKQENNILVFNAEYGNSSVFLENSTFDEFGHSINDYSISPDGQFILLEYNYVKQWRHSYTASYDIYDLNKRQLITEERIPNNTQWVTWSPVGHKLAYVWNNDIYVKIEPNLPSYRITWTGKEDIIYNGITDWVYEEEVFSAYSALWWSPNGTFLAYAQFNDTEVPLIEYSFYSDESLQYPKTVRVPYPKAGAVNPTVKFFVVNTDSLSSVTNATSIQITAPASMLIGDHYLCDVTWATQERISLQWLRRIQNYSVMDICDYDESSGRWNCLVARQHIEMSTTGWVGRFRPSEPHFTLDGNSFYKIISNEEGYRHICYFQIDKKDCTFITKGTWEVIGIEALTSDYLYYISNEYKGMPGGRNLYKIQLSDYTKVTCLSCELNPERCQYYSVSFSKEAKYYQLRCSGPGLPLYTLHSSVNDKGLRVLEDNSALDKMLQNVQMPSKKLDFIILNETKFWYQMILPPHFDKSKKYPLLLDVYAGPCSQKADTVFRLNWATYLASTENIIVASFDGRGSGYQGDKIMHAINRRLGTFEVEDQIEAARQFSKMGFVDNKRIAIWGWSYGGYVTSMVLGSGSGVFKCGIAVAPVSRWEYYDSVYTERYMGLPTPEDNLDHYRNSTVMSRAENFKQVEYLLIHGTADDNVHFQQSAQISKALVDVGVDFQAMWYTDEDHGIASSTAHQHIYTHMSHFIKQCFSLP

For the compound `CCCC[C@@H]1CN2CCc3cc(O)c(OC)cc3[C@H]2C[C@H]1N` (racemic) [Example 39, rac-2α-Amino-3β-butyl-10-methoxy-1,3,4,6,7,11bβ-hexahydro-2H-pyrido[2,1-a]isoquinolin-9-ol chlorohydrate (1:2)], the IC50 stood at 620 nM.

As for `CCCCC1CN2CCc3cc(O)c(OC)cc3C2CC1N` (racemic) [Example 43b, rac-2α-amino-3β-butyl-10-methoxy-1,3,4,6,7,11bβ-hexahydro-2H-pyrido[2,1-a]isoquinolin-9-ol], the IC50 worked out at 340 nM.

As for `CCCCC1CN2C(CC1N)c1cc(OC)c(OC)cc1C1CCCCC12` (racemic) [Example 36, rac-7β-Butyl-11,12-dimethoxy-2,3,4,4a,6,7,8,9,9a,13bβ-decahydro-1H-pyrido[1,2-f]phenanthridin-8β-ylamine chlorohydrate (1:2)], the half-maximal inhibitory concentration (IC50) is 160 nM.

As to `COc1cc2c(cc1OC)C1CC(N)C(CCC(C)C)CN1CC2` (racemic) [Example 5, rac-9,10-Dimethoxy-3β-(3-methyl-butyl)-1,3,4,6,7,11bβ-hexahydro-2H-pyrido[2,1-a]isoquinolin-2α-ylamine], the IC50 stood at 570 nM.

In the case of `CCCCC1CN2C(CC1N)c1cc(OC)c(OC)cc1C1CCCCC12` (mixture of isomers) [Example 17, rac-7β-Butyl-11,12-dimethoxy-2,3,4,4a,6,7,8,9,9a,13bβ-decahydro-1H-pyrido[1,2-f]phenanthridin-8β-ylamine], the IC50 worked out at 140 nM.

The term IC50 denotes the concentration that inhibits the measured activity by half.
